Key:
human PDE5 = molecular target: T1, human PDE5 (Homo sapiens, UniProt O76074); experiment: Inhibition of PDE5 activity (SPA, [3H]cGMP, platelet lysate); assay type: biochemical; settings: PDE5 from human platelet lysate; values given as bins; read-out: PDE5A inhibitory values measured as −logIC50 (converted)
T1 construct: from tissue; host or cells: human platelets from fresh donor blood (10,000 g supernatant of sonicated platelets)
Description: As a source for human PDE5, platelets are used. For that purpose, 150 ml fresh blood from human donors anticoagulated with citrate [final concentration 0.3% (w/v)] is centrifuged at 200 g for 10 min to obtain the so-called platelet-rich-plasma (PRP) as a supernatant. 1/10 volume of ACD solution (85 mM Na3-citrate, 111 mM D-glucose, 71 mM citric acid, pH 4.4) is added to 9/10 volume of PRP. After centrifugation (1,400 g, 10 min) the cell pellet is resuspended in 3 ml homogenization buffer (NaCl 140 mM, KCl 3.8 mM, EGTA (ethylene glycol tetraacetic acid) 1 mM, MgCl2 1 mM, Tris-HCl 20 mM, beta-mercaptoethanol 1 mM, pH 8.2) plus protease-inhibitor mix giving rise to the final concentrations of 0.5 mM Pefablock (Roche), 10 μM Leupeptin, 5 μM Trypsininhibitor, 2 mM Benzamidin and 10 μM Pepstatin A. The suspension is sonified and thereafter centrifuged for 15 min at 10,000 g. The resulting supernatant (platelet lysate) is used for enzymatic testings.
PDE5 activities were measured in a 96-well platform using SPA (scintillation proximity assay) yttrium silicate beads (RPNQ1050 from GE Healthcare). In a first step the PDE activity operates hydrolysis of either [^3H] cGMP (substrate) into [^3H] 5′GMP. In a second step substrate and product are distinguished following addition of SPA yttrium silicate beads. Indeed, in the presence of zinc sulphate the linear [^3H] […] Close proximity of bound [^3H] […] The test volume is 100 pl and contains 20 mM Tris buffer (pH 7.4), 0.1 mg of BSA (bovine serum albumin)/ml, 5 mM Mg^2+, 1 μM motapizone (PDE3 Inhibitor), 10 nM PDE2 inhibitor 2-(3,4-dimethoxybenzyl)-7-[(1R,2R)-2-hydroxy-1-(2-phenylethyl)propyl]-5-methylimidazo[5,1-f][1,2,4]triazin-4(3H)-one, […] (cyclic guanosine monophosphate) (including about 50,000 cpm of [3H]cGMP as a tracer), 1 pl of the respective compound dilution in dimethylsulfoxide (DMSO) and sufficient PDE5-containing platelet lysat (10,000, g supernatant, see above) to ensure that 10-20 wt % of the cGMP is converted under the said experimental conditions. […] After a preincubation of 5 min at 37° C., the reaction is started by adding the substrate (cGMP) and the assay is incubated for a further 15 min; after that, it is stopped by adding SPA beads (50 pl). In accordance with the manufacturer's instructions, the SPA beads had previously been resuspended in water, but are then diluted 1:3 (v/v) in water; the diluted solution also contains 3 mM […]3-isobutyl-1-methylxanthine (IBMX) to ensure a complete PDE activity stop. After the beads have been sedimented (>30 min), the MTP's are analyzed in commercially available luminescence detection devices. The corresponding IC50 values of the compounds for the inhibition of PDE activity are determined from the concentration-effect curves by means of non-linear regression.

PDE4B1 = molecular target: T2, PDE4B1 (Homo sapiens, UniProt Q07343); experiment: Inhibition of PDE4B1 activity (SPA, [3H]cAMP); assay type: biochemical; settings: recombinant PDE4B1 expressed in SF21 cells; 0.5 pM [sic] cAMP; values given as bins; read-out: PDE4B1 inhibitory values measured as −logIC50 (converted)
T2 construct: made in house; host or cells: SF21 insect cells (baculovirus; pCR-Bac vector)
T2 sequence (Q07343 whole entry): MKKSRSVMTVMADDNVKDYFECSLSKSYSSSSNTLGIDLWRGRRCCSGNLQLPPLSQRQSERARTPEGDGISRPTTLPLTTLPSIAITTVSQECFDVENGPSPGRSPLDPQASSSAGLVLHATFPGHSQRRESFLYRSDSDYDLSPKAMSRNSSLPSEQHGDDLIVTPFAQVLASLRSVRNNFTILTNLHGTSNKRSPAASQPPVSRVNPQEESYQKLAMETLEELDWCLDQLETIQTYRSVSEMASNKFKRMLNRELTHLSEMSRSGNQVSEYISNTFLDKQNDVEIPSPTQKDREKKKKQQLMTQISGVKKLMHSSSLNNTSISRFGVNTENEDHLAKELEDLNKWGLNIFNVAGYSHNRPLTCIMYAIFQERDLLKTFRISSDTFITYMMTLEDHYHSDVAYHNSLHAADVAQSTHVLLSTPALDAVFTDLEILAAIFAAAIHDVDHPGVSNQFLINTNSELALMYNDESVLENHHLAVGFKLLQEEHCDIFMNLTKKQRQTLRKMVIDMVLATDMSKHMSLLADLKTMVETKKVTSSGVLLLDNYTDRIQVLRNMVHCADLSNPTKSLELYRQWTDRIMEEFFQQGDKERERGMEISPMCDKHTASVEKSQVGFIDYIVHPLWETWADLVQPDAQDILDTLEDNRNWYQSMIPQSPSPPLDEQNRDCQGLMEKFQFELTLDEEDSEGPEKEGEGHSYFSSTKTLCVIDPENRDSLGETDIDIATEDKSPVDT
Description: The PDE4B1 (GB no. L20966) was a gift of Prof. M. Conti (Stanford University, USA). It was amplified from the original plasmid (pCMV5) via PCR with primers Rb18 (5′-[…]-3′) and Rb10 (5′-[…]-3′) and cloned into the pCR-Bac vector (Invitrogen, Groningen, NL).
The recombinant baculovirus was prepared by means of homologous recombination in SF9 insect cells. The expression plasmids were cotransfected with Baculo-Gold DNA (Pharmingen, Hamburg) using a standard protocol (Pharmingen, Hamburg). Wt virus-free recombinant virus supernatants were selected using plaque assay methods. After that, high-titre virus supernatants were prepared by amplifying 3 times. PDE4B1 was expressed in SF21 cells by infecting 2×10^6 cells/ml with an MOI (multiplicity of infection) between 1 and 10 in the serum-free medium Insect Express Sf9-S2 (PAA, Pasching, Austria). The cells were cultured at 28° C. for 48-72 hours, after which they were pelleted for 5-10 min at 1000×g and 4° C.
The SF21 insect cells were resuspended, at a concentration of approx. 10^7 cells/ml, in ice-cold (4° C.) homogenization buffer (20 mM Tris, pH 8.2, containing the following additions: 140 mM NaCl, 3.8 mM KCl, 1 mM EGTA, 1 mM MgCl2, 10 mM e-mercaptoethanol, 2 mM benzamidine, 0.4 mM Pefablock, 10 pM leupeptin, 10 pM pepstatin A, 5 pM trypsin inhibitor) and disrupted by ultrasonication. The homogenate was then centrifuged for 10 min at 1000, g and the supernatant was stored at −80° C. until subsequent use (see below). The protein content was determined by the Bradford method (BioRad, Munich) using BSA as the standard.
PDEB1 activities were measured in a 96-well platform using SPA (scintillation proximity assay) yttrium silicate beads (RPNQ1050 from GE Healthcare). In a first step the PDE activity operates hydrolysis of either [^3H] cAMP (substrate) into [^3H] 5′AMP. In a second step substrate and product are distinguished following addition of SPA yttrium silicate beads. Indeed, in the presence of zinc sulphate the linear [^3H] […] Close proximity of bound [^3H] […] The test volume is 100 pl and contains 20 mM Tris buffer (pH 7.4), 0.1 mg/ml of BSA, 5 mM Mg^2+, […] (including about 50,000 cpm of [3H]cAMP), 1 pl of the respective substance dilution in DMSO and sufficient recombinant PDE (1000, g supernatant, see above) to ensure that 10-20% of the cAMP is converted under the said experimental conditions. […] After a preincubation of 5 min at 37° C., the reaction is started by adding the substrate (cAMP) and the assays are incubated for a further 15 min; after that, they are stopped by adding SPA beads (50 pl). In accordance with the manufacturer's instructions, the SPA beads had previously been resuspended in water, but were then diluted 1:3 (v/v) in water; the diluted solution also contains 3 mM IBMX to ensure a complete PDE activity stop. After the beads have been sedimented (>30 min), the MTP's are analyzed in commercially available luminescence detection devices. The corresponding IC50 values of the compounds for the inhibition of PDE4B1 activity are determined from the concentration-effect curves by means of non-linear regression.

IC50 (human PDE5) [nM] | IC50 (PDE4B1) [nM] | SMILES
< 10 | > 10 | CCOc1cc2c(cc1OC)C(c1ccc(C(=O)N3CCC(n4c(=O)c5sc(-c6ccccc6)cc5n(Cc5nnn(CC)n5)c4=O)CC3)cc1)=NC1CC[S+]([O-])CC21 (single isomer, unassigned) [Example 24]
> 100 | 1 to 10 | CCOc1cc2c(cc1OC)C(c1ccc(C(=O)N3CCC(n4c(=O)c5sc(-c6ccccc6)cc5n(Cc5cn(CC)nn5)c4=O)CC3)cc1)=N[C@@H]1CCSC[C@H]21 [Example 23, 3-[1-({4-[(4aR,10bR)-9-ethoxy-8-methoxy-3,4,4a,10b-tetrahydro-1H-thiopyrano[4,3-c]isoquinolin-6-yl]phenyl}carbonyl)piperidin-4-yl]-1-[(1-ethyl-1H-1,2,3-triazol-4-yl)methyl]-6-phenylthieno[3,2-d]pyrimidine-2,4(1H,3H)-dione]
> 100 | < 1 | CCOc1cc2c(cc1OC)C(c1ccc(C(=O)N3CCC(n4c(=O)c5sc(-c6ccccc6)cc5n(Cc5nccn5C)c4=O)CC3)cc1)=N[C@@H]1CCSC[C@H]21 [Example 53, 3-[1-({4-[(4aR,10bR)-9-ethoxy-8-methoxy-3,4,4a,10b-tetrahydro-1H-thiopyrano[4,3-c]isoquinolin-6-yl]phenyl}carbonyl)piperidin-4-yl]-1-[(1-methyl-1H-imidazol-2-yl)methyl]-6-phenylthieno[3,2-d]pyrimidine-2,4(1H,3H)-dione]
< 10 | 1 to 10 | CCOc1cc2c(cc1OC)C(c1ccc(C(=O)N3CCC(n4c(=O)c5sc(-c6ccccc6)cc5n(Cc5ncc(CC)o5)c4=O)CC3)cc1)=N[C@@H]1CCSC[C@H]21 [Example 1, 3-[1-({4-[(4aR,10bR)-9-ethoxy-8-methoxy-3,4,4a,10b-tetrahydro-1H-thiopyrano[4,3-c]isoquinolin-6-yl]phenyl}carbonyl)piperidin-4-yl]-1-[(5-ethyl-1,3-oxazol-2-yl)methyl]-6-phenylthieno[3,2-d]pyrimidine-2,4(1H,3H)-dione]
< 10 | 1 to 10 | CCOc1cc2c(cc1OC)C(c1ccc(C(=O)N3CCC(n4c(=O)c5sc(-c6ccc(F)c(F)c6)cc5n(Cc5nc(CC)no5)c4=O)CC3)cc1)=N[C@@H]1CCSC[C@H]21 [Example 49, 6-(3,4-difluorophenyl)-3-[1-({4-[(4aR,10bR)-9-ethoxy-8-methoxy-3,4,4a,10b-tetrahydro-1H-thiopyrano[4,3-c]isoquinolin-6-yl]phenyl}carbonyl)piperidin-4-yl]-1-[(3-ethyl-1,2,4-oxadiazol-5-yl)methyl]thieno[3,2-d]pyrimidine-2,4(1H,3H)-dione]
> 100 | 1 to 10 | CCOc1cc2c(cc1OC)C(c1ccc(C(=O)N3CCC(n4c(=O)c5sc(-c6ccccc6)cc5n(Cc5csc(C)n5)c4=O)CC3)cc1)=N[C@@H]1CCSC[C@H]21 [Example 10, 3-[1-({4-[(4aR,10bR)-9-ethoxy-8-methoxy-3,4,4a,10b-tetrahydro-1H-thiopyrano[4,3-c]isoquinolin-6-yl]phenyl}carbonyl)piperidin-4-yl]-1-[(2-methyl-1,3-thiazol-4-yl)methyl]-6-phenylthieno[3,2-d]pyrimidine-2,4(1H,3H)-dione]
> 100 | 1 to 10 | CCOc1cc2c(cc1OC)C(c1ccc(C(=O)N3CCC(n4c(=O)c5sc(-c6ccccc6)cc5n(Cc5nc(C)cs5)c4=O)CC3)cc1)=N[C@@H]1CCSC[C@H]21 [Example 13, 3-[1-({4-[(4aR,10bR)-9-ethoxy-8-methoxy-3,4,4a,10b-tetrahydro-1H-thiopyrano[4,3-c]isoquinolin-6-yl]phenyl}carbonyl)piperidin-4-yl]-1-[(4-methyl-1,3-thiazol-2-yl)methyl]-6-phenylthieno[3,2-d]pyrimidine-2,4(1H,3H)-dione]
10 to 100 | 1 to 10 | CCOc1cc2c(cc1OC)C(c1ccc(C(=O)N3CCC(n4c(=O)c5sc(-c6ccccc6)cc5n(Cc5cc(C)on5)c4=O)CC3)cc1)=N[C@@H]1CCSC[C@H]21 [Example 6, 3-[1-({4-[(4aR,10bR)-9-ethoxy-8-methoxy-3,4,4a,10b-tetrahydro-1H-thiopyrano[4,3-c]isoquinolin-6-yl]phenyl}carbonyl)piperidin-4-yl]-1-[(5-methylisoxazol-3-yl)methyl]-6-phenylthieno[3,2-d]pyrimidine-2,4(1H,3H)-dione]
< 10 | 1 to 10 | CCOc1cc2c(cc1OC)C(c1cccc(C(=O)N3CCC(n4c(=O)c5sc(-c6ccc(F)cc6OC)cc5n(Cc5nc(COC)no5)c4=O)CC3)c1)=N[C@@H]1CCSC[C@H]21 [Example 45, 3-[1-({3-[(4aR,10bR)-9-ethoxy-8-methoxy-3,4,4a,10b-tetrahydro-1H-thiopyrano[4,3-c]isoquinolin-6-yl]phenyl}carbonyl)piperidin-4-yl]-6-(4-fluoro-2-methoxyphenyl)-1-{[3-(methoxymethyl)-1,2,4-oxadiazol-5-yl]methyl}thieno[3,2-d]pyrimidine-2,4(1H,3H)-dione]
< 10 | > 10 | CCOc1cc2c(cc1OC)C(c1cccc(C(=O)N3CCC(n4c(=O)c5sc(-c6ccc7c(c6)OCO7)cc5n(Cc5nnn(CC)n5)c4=O)CC3)c1)=N[C@@H]1CCSC[C@H]21 [Example 31, 6-(1,3-benzodioxol-5-yl)-3-[1-({3-[(4aR,10bR)-9-ethoxy-8-methoxy-3,4,4a,10b-tetrahydro-1H-thiopyrano[4,3-c]isoquinolin-6-yl]phenyl}carbonyl)piperidin-4-yl]-1-[(2-ethyl-2H-tetrazol-5-yl)methyl]thieno[3,2-d]pyrimidine-2,4(1H,3H)-dione]
